{"source": "patent US7049295B2", "about": "“Compounds and use thereof to modify transport across cell membranes” (Biotransys Limited, priority 1999, dated 2006)", "key": {"[1]": {"tested_on": "HUVECs", "assay": "Transcellular transport of horse radish peroxidase (HRP) across a cell monolayer on filter", "assay_type": "cell-based, human", "method": "Transport of horse radish peroxidase (HRP) across a cellular membrane was measured using the apparatus shown schematically in FIG. 4, with the addition of biovectors (BVS1 etc). The apparatus comprises upper and lower compartments (1, 2 respectively) separated by a filter 3 on which the cells 4 are grown. HRP and biovectors are added to the medium in the upper compartment 1, and HRP is assayed in the lower compartment 2.\nTranscellular transport was determined as above for the HUVECs studies. […]"}, "[2]": {"tested_on": "Caco2 cells", "assay": "Transcellular transport of HRP across monolayers of Caco2 cells", "assay_type": "cell-based", "conditions": "Caco2 monolayer, following treatment with 5 μM BVS1 (absence of BVS1: ca 0.001)", "method": "Caco2 cells were cultured (passage 17–30) with standard methods and used at ca 21 days. Cells were plated at a density of ca. […] on Transwell® filters (2–4 μm, mean pore size).\nThe viability of cells for transport was assessed on the basis of the transcellular electrical resistance and values […] were assessed as viable.\nTranscellular transport was determined as above for the HUVECs studies. In the absence of BVS1 transcellular transport was determined to be ca 0.001 nM min^−1."}, "[3]": {"tested_on": "receptor located in human umbilical vein endothelial cells (HUVECS)", "assay": "Interaction of designer peptides with FPE-labelled human cells possessing membrane receptor (fluorescence)", "assay_type": "binding", "source_text": "(§1) The following Examples illustrate the behaviour of various peptides and other molecules that promote transcellular transport of therapeutic molecules etc. These studies make use of techniques that show the interactions of molecules with receptors and cell membranes. […] The underlying theory and application of this technique is outlined in: • Wall, J., Ayoub, F. & O'Shea. P. (1995) J. Cell Sci. 108, 2673–2682 • Cladera, J. and O'Shea, P. (1998) Biophys. J. 74, 2434–2442 • Cladera, J., Martin, I., Ruysschaert, J. M. and O'Shea, P. (1999) J. Biol. Chem. 274, 29951–29959 the teaching of all of which is incorporated herein by reference.\nHuman umbilical endothelial cells were labelled with FPE and challenged with the indicated amounts of BVS1 peptides. […] Fluorescence was recorded at 518 nm after excitation at 490 nm.\nTwo separate experiments are shown and offset in the time dimension for clarity. Peptides were added as indicated by the arrows. The BVS1 peptide was added in both experiments. In the second trace, however, addition of BVS1 was preceded by the addition of 300 nM IL-8."}, "[4]": {"tested_on": "receptor isolated from the HUVECS plasma membrane (albumin receptor protein)", "assay": "Interaction with purified isolated receptor reconstituted into FPE-labelled artificial membranes", "assay_type": "binding, human", "source_text": "as §1\nAt the arrows, 5 μM BVS1 was added. Two separate experiments are shown and offset in the time dimension for clarity."}, "[5]": {"conditions": "+5 μM biovector, over baseline 0.003 nM/min^−1"}}}
{"substance": "AGIGALFLGFLGAAG [BVS16]", "values": [{"measurement": "Facilitated transport", "setting": "[1]; [5]", "result": 9, "unit": "X Fold"}]}
{"substance": "AVGIGALFLGFLGAAG [BVS1]", "values": [{"measurement": "Facilitated transport", "setting": "[1]; +5 μM PSNU then +5 μM BVS1", "result": "3/0"}, {"measurement": "Facilitated transport", "setting": "[1]; [5]", "result": 15, "unit": "X Fold"}, {"measurement": "transcellular transport", "setting": "[2]", "result": 0.02, "unit": "nM/min"}, {"measurement": "binding to receptor (FPE fluorescence)", "setting": "[3]; HUVECS labelled with FPE", "result": "clearly binds to a receptor"}, {"measurement": "binding to receptor after prior addition of IL-8", "setting": "[3]; addition of BVS1 preceded by 300 nM IL-8", "result": "unable to bind"}, {"measurement": "binding to reconstituted isolated receptor (FPE fluorescence increase)", "setting": "[4]; 5 μM BVS1", "result": "clearly binds to a receptor"}, {"measurement": "binding to reconstituted isolated receptor after prior addition of human serum albumin", "setting": "[4]; 5 μM BVS1 preceded by 5 μM human serum albumin", "result": "unable to bind"}]}
{"substance": "GVFVLGFLGFLATAGS [BVS9]", "values": [{"measurement": "Facilitated transport", "setting": "[1]; [5]", "result": 7, "unit": "X Fold"}]}
{"substance": "GVFVLGLFGFLA [BVS5]", "values": [{"measurement": "Facilitated transport", "setting": "[1]; [5]", "result": 22, "unit": "X Fold"}]}
{"substance": "interleukin-8 [IL-8]", "values": [{"measurement": "binding of IL-8 to the receptor targeted by BVS1", "setting": "[3]; 300 nM IL-8", "result": "appears to bind"}]}
{"substance": "polysulfonylnaphthylurea [PSNU, reference compound]", "values": [{"measurement": "Facilitated transport", "setting": "[1]; [5]", "result": 3, "unit": "X Fold"}, {"measurement": "interaction with reconstituted albumin receptor protein (FPE)", "setting": "[4]; 2 μM PSNU", "result": "interactions take place"}]}
